Patent publication US10017506B2, “ATX modulating agents” (BIOGEN MA INC., priority 2012, dated 2018)

The compounds below were run against T1, Human ATX protein (Homo sapiens, UniProt Q13822) (assay: ATX biochemical FRET assay with FS-3 substrate). Details: FRET substrate FS-3 2 μM, ATX 1.0 μg/mL, 30 minutes pre-incubation, 2 hours at room temperature; read-out: IC50.
T1 construct: made in house
Source text: ATX (Autotaxin) is a 125 KDa glycoprotein with lysophospholipase D (LPLD) activity that generates the bioactive lipid lysophosphatidic acid (LPA) from lysophosphatidylcholine (LPC). The ATX biochemical assay utilizes a FRET (fluorescence resonance energy transfer) technology platform. The fluorescence signal of FRET substrate FS-3 is quenched due to intra-molecular FRET of a fluorophore to a non-fluorescing quencher (Ferguson, C. G., et al., Org Lett. 2006 May 11; 8(10): 2023-2026, which is incorporated by reference in its entirety). ATX catalyzes the hydrolysis of the substrate which separates the dabsyl quencher from the fluorescein reporter, which becomes fluorescent. The reaction is monitored by a SpectraMax M5 (Molecular Devices, Sunnyvale, Calif.) with at excitation wavelength 485 nm and emission wavelength […].
Fatty acid free-BSA (Sigma A8806): 10 mg/mL in H2O, stored at 4° C.
2×ATX assay buffer: 100 mM Tris, 280 mM NaCl, 10 mM KCl, 2 mM CaCl2, 2 mM MgCl2, pH 7.4.
Human ATX protein: expressed and purified in house. Stored at −80° C.
Substrate FS-3 (Echelon, L-2000): 100 μg in 77.74 μL H2O (1 mM stock), stored at −20° C.
384-well flat bottom plates—Corning #3575.
Compound dilution—All compounds were provided at 10 mM in 100% DMSO. In the first well, 2 μL of 10 mM compound was added to 78 μL of DMSO (1:40 dilution). In subsequent wells 3-fold dilution (total 10 dilutions) were performed.
1×ATX assay buffer was made up with a final concentration of 1 mg/mL fatty acid free-BSA using 2×ATX assay buffer, 10 mg/ml fatty acid free-BSA and ddH2O.
ATX protein was diluted with 1×ATX assay buffer to a concentration of 1.32 μg/mL (1.32×). 38 μL was added per well to the assay plate. The final concentration of ATX in the reaction as 1.0 μg/mL.
2 μL per well of compounds was transferred to provide the desired concentration. The plate was centrifuged, then incubated at room temperature for 30 minutes on the shaker.
Then, 10 μL was added per well to the assay plate. […] The plate was centrifuged. The plate was kept shaking at room temperature for 2 hours. Because FS-3 substrate is light sensitive, plates were kept covered and protected from light.
Fluorescence was measured using SpectraMax M5 (excitation at 485 nm/emission at 538 nm, top read).

| IC50 [nM] | SMILES |
| --- | --- |
| ≤ 500 | CCC(N[C@H]1C[C@@H](C(=O)O)C1(C)C)c1ccc2ccc(O[C@H]3CC[C@@H](C(F)(F)F)CC3)c(Cl)c2c1 (stereo partly drawn) [Example 32, (1R,3S)-3-((1-(8-chloro-7-((cis-4-(trifluoromethyl)cyclohexyl)oxy)naphthalen-2-yl)propyl)amino)-2,2-dimethylcyclobutanecarboxylic acid] |
| ≤ 500 | O=C(O)C1CCN(Cc2ccc3ccc(O[C@H]4CC[C@@H](C(F)(F)F)CC4)c(C(F)(F)F)c3c2)CC1 [Example 43, 1-((8-(trifluoromethyl)-7-((cis-4-(trifluoromethyl)cyclohexyl)oxy)naphthalen-2-yl)methy 1)piperidine-4-carboxylic acid] |
| ≤ 100 | CC(c1ccc2ccc(O[C@H]3CC[C@@H](C(F)(F)F)CC3)c(C(F)(F)F)c2c1)N1CCC(C(=O)O)CC1 (stereo partly drawn) [Example 44, 1-(1-(8-(trifluoromethyl)-7-((cis-4-(trifluoromethyl)cyclohexyl)oxy)naphthalen-2-yl)ethyl)piperidine-4-carboxylic acid] |
| ≤ 250 | CCC(c1ccc2ccc(O[C@H]3CC[C@@H](C(F)(F)F)CC3)c(C(F)(F)F)c2c1)N1CCC(C(=O)O)CC1 (stereo partly drawn) [Example 45, 1-(1-(8-(trifluoromethyl)-7-((cis-4-(trifluoromethyl)cyclohexyl)oxy)naphthalene-2-yl)propyl)piperidine-4-carboxylic acid] |
| ≤ 500 | CC[C@H]1CC[C@@H](Oc2ccc3ccc(CN4CCC(C(=O)O)CC4)cc3c2C(F)(F)F)CC1 [Example 50, 1-((7-((cis-4-ethylcyclohexyl)oxy)-8-(trifluoromethyl)naphthalen-2-yl)methyl)piperidine-4-carboxylic acid] |
| ≤ 500 | CC[C@H]1CC[C@@H](Oc2ccc3ccc(CN4CCC[C@H](CC(=O)O)C4)cc3c2C(F)(F)F)CC1 [Example 53, 2-((R)-1-((7-((cis-4-ethylcyclohexyl)oxy)-8-(trifluoromethyl)naphthalen-2-yl)methyl)piperidin-3-yl)acetic acid] |
| ≤ 500 | CC[C@H]1CC[C@@H](Oc2ccc3ccc(CNC4CC(C(=O)O)C4(C)C)cc3c2C(F)(F)F)CC1 (stereo partly drawn) [Example 54, 3-(((7-((cis-4-ethylcyclohexyl)oxy)-8-(trifluoromethyl)naphthalen-2-yl)methyl)amino)-2,2-dimethylcyclobutanecarboxylic acid] |
| ≤ 100 | CC[C@H]1CC[C@@H](Oc2ccc3ccc(C(C)N4CCC(C(=O)O)CC4)cc3c2C(F)(F)F)CC1 (stereo partly drawn) [Example 57, 1-(1-(7-((cis-4-ethylcyclohexyl)oxy)-8-(trifluoromethyl)naphthalen-2-yl)ethyl)piperidine-4-carboxylic acid] |
| ≤ 250 | CC[C@H]1CC[C@@H](Oc2ccc3ccc(C(C)N4CCC[C@H](CC(=O)O)C4)cc3c2C(F)(F)F)CC1 (stereo partly drawn) [Example 58, 2-((3R)-1-(1-(7-((cis-4-ethylcyclohexyl)oxy)-8-(trifluoromethyl)naphthalen-2-yl)ethyl)piperidin-3-yl)acetic acid] |

Same assay, conditions: IC50, FRET substrate FS-3 2 μM, ATX 1.0 μg/mL, 30 minutes pre-incubation, 2 hours at room temperature

| SMILES | IC50 [nM] |
| --- | --- |
| N#Cc1c(O[C@H]2CC[C@@H](C(F)(F)F)CC2)ccc2ccc(CN3C4CCC3CC(C(=O)O)C4)cc12 (stereo partly drawn) [Example 34, 8-((8-cyano-7-((cis-4-(trifluoromethyl)cyclohexyl)oxy)naphthalen-2-yl)methyl)-8-azabicyclo[3.2.1]octane-3-carboxylic acid] | ≤ 250 |
| N#Cc1c(O[C@H]2CC[C@@H](C(F)(F)F)CC2)ccc2ccc(CN3C4CCCC3CC(C(=O)O)C4)cc12 (stereo partly drawn) [Example 35, 9-((8-cyano-7-((cis-4-(trifluoromethyl)cyclohexyl)oxy)naphthalen-2-yl)methyl)-9-azabicyclo[3.3.1]nonane-3-carboxylic acid] | ≤ 250 |
| CC(c1ccc2ccc(O[C@H]3CC[C@@H](C(F)(F)F)CC3)c(C#N)c2c1)N1C2CCC1CC(C(=O)O)C2 (stereo partly drawn) [Example 37, 8-(1-(8-cyano-7-((cis-4-(trifluoromethyl)cyclohexyl)oxy)naphthalen-2-yl)ethyl)-8-azabicyclo[3.2.1]octane-3-carboxylic acid] | ≤ 100 |
| CC(c1ccc2ccc(O[C@H]3CC[C@@H](C(F)(F)F)CC3)c(C#N)c2c1)N1C2CCCC1CC(C(=O)O)C2 (stereo partly drawn) [Example 38, 9-(1-(8-cyano-7-((cis-4-(trifluoromethyl)cyclohexyl)oxy)naphthalen-2-yl)ethyl)-9-azabicyclo[3.3.1]nonane-3-carboxylic acid] | ≤ 100 |
| CCC(c1ccc2ccc(O[C@H]3CC[C@@H](C(F)(F)F)CC3)c(C#N)c2c1)N1C2CCC1CC(C(=O)O)C2 (stereo partly drawn) [Example 40, 8-(1-(8-cyano-7-((cis-4-(trifluoromethyl)cyclohexyl)oxy)naphthalen-2-yl)propyl)-8-azabicyclo[3.2.1]octane-3-carboxylic acid] | ≤ 500 |
| CCC(c1ccc2ccc(O[C@H]3CC[C@@H](C(F)(F)F)CC3)c(C#N)c2c1)N1C2CCCC1CC(C(=O)O)C2 (stereo partly drawn) [Example 41, 9-(1-(8-cyano-7-((cis-4-(trifluoromethyl)cyclohexyl)oxy)naphthalen-2-yl)propyl)-9-azabicyclo[3.3.1]nonane-3-carboxylic acid] | ≤ 250 |
| CC(c1ccc2ccc(O[C@H]3CC[C@@H](C(F)(F)F)CC3)c(C(F)F)c2c1)N1C2CCC1CC(C(=O)O)C2 (stereo partly drawn) [Example 42, 8-(1-(8-(difluoromethyl)-7-((cis-4-(trifluoromethyl)cyclohexyl)oxy)naphthalen-2-yl)ethyl)-8-azabicyclo[3.2.1]octane-3-carboxylic acid] | ≤ 100 |
| [2H]C([2H])([2H])[C@@H](c1ccc2ccc(O[C@H]3CC[C@@H](C(F)(F)F)CC3)c(C(F)(F)F)c2c1)N1C2CCC1CC(C(=O)O)C2 (stereo partly drawn) [Example 46, 8-((S)-1-(8-(trifluoromethyl)-7-((cis-4-(trifluoromethyl)cyclohexyl)oxy)naphthalen-2-yl)-2,2,2-trideuteroethyl)-8-azabicyclo[3.2.1]octane-3-carboxylic acid] | ≤ 100 |
| CC[C@H]1CC[C@@H](Oc2ccc3ccc(CN4C5CCC4CC(C(=O)O)C5)cc3c2Cl)CC1 (stereo partly drawn) [Example 48, 8-((8-chloro-7-((cis-4-ethylcyclohexyl)oxy)naphthalen-2-yl)methyl)-8-azabicyclo[3.2.1]octane-3-carboxylic acid] | ≤ 100 |
| CC[C@H]1CC[C@@H](Oc2ccc3ccc(CN4C5CCC4CC(C(=O)O)C5)cc3c2C(F)(F)F)CC1 (stereo partly drawn) [Example 51, 8-((7-((cis-4-ethylcyclohexyl)oxy)-8-(trifluoromethyl)naphthalen-2-yl)methyl)-8-azabicyclo[3.2.1]octane-3-carboxylic acid] | ≤ 100 |
| CC[C@H]1CC[C@@H](Oc2ccc3ccc(CN4C5CCCC4CC(C(=O)O)C5)cc3c2C(F)(F)F)CC1 (stereo partly drawn) [Example 52, 9-((7-((cis-4-ethylcyclohexyl)oxy)-8-(trifluoromethyl)naphthalen-2-yl)methyl)-9-azabicyclo[3.3.1]nonane-3-carboxylic acid] | ≤ 100 |
| CC[C@H]1CC[C@@H](Oc2ccc3ccc(C(C)N4C5CCC4CC(C(=O)O)C5)cc3c2C(F)(F)F)CC1 (stereo partly drawn) [Example 55, 8-(1-(7-((cis-4-ethylcyclohexyl)oxy)-8-(trifluoromethyl)naphthalen-2-yl)ethyl)-8-azabicyclo[3.2.1]octane-3-carboxylic acid] | ≤ 100 |
| CC[C@H]1CC[C@@H](Oc2ccc3ccc(C(C)N4C5CCCC4CC(C(=O)O)C5)cc3c2C(F)(F)F)CC1 (stereo partly drawn) [Example 56, 9-(1-(7-((cis-4-ethylcyclohexyl)oxy)-8-(trifluoromethyl)naphthalen-2-yl)ethyl)-9-azabicyclo[3.3.1]nonane-3-carboxylic acid] | ≤ 100 |
